# Values quoted from earlier work in patent US5364629A, “Device and method for enhanced administration of physostigmine” (priority 1991, dated 1994).
# Tests used:
# [1] = American Journal of Psychiatry, July 1979
# [2] = Davis, et al, Science, Volume 201, p. 272 (1978)
# [3] = early observation, myasthenia gravis background
# [4] = systemic use
# [5] = tablets
smiles,measurement,setting,value
"CNC(=O)Oc1ccc2c(c1)[C@]1(C)CCN(C)[C@@H]1N2C [Physostigmine, physostigmine]",effect on tardive dyskinesia,[1],positive: therapeutic effect on tardive dyskinesia
same,retrieval of information from long-term memory,[2],retrieval of information from long-term memory was also improved
same,storage of information into long-term memory,[2],significantly enhanced storage of information into long-term memory
same,strength of muscular contraction,[3],increased strength of muscular contraction
same,therapeutic window,[4],narrow therapeutic window
same,drug blood levels for multiple oral doses,[5],ranging from a maximum above the required level (and possibly in the toxic range) to a minimum which may be below the effective dose
